Molecules are shown by their SMILES. pEC50: −log10 of the molar value. Read-outs that look alike come from different tables or passages of the source.

This assay deals with HCV 1b genotype. Nature of the assay: HCV Replicon assay, 1b genotype. The format is cell-based. To be noted: Hepatitis C virus, HCV 1b genotype replicon. How it is done:
An HCV Replicon assay was utilized in the present disclosure, and was prepared, conducted and validated as described in commonly owned PCT/US2006/022197 and in O'Boyle et. al. Antimicrob Agents Chemother. 2005 April; 49(4):1346-53. Assay methods incorporating luciferase reporters have also been used as described (Apath.com).
HCV-neo replicon cells and replicon cells containing mutations in the NS5A region were used to test the currently described family of compounds. The compounds were determined to have more than 10-fold less inhibitory activity on cells containing mutations than wild-type cells. Thus, the compounds of the present disclosure can be effective in inhibiting the function of the HCV NS5A protein and are understood to be as effective in combinations as previously described in application PCT/US2006/022197 and commonly owned WO/O4014852. Further, the compounds of the present disclosure can be effective against the HCV 1b genotype. It should also be understood that the compounds of the present disclosure can inhibit multiple genotypes of HCV. […] In one embodiment, compounds of the present disclosure are inhibitory versus 1a, 1b, 2a, 2b, 3a, 4a, and 5a genotypes.

With `O=C(OCc1ccccc1)N1CCCN1c1nc(-c2ccc(-c3ccc(-c4c[nH]c(N5CCCN5C(=O)OCc5ccccc5)n4)cc3)cc2)c[nH]1` [Example 10, dibenzyl 2,2′-(4,4′-biphenyldiylbis(1H-imidazole-4,2-diyl))di(1-pyrazolidinecarboxylate)], the pEC50 (read-out: 1b EC50 in Range) is 7.00 to 9.00.
In the case of `COC(=O)N[C@H](C(=O)N1[C@H](c2ncc(-c3ccc(-c4ccc(-c5cnc([C@@H]6CCN(C)N6C(=O)[C@@H](NC(=O)OC)C(C)C)[nH]5)cc4)cc3)[nH]2)CCN1C)C(C)C` [Example 1, methyl ((1S)-1-(((5S)-5-(5-(4′-(2-((3S)-2-((2S)-2-((methoxycarbonyl)amino)-3-methylbutanoyl)-1-methyl-3-pyrazolidinyl)-1H-imidazol-5-yl)-4-biphenylyl)-1H-imidazol-2-yl)-2-methyl-1-pyrazolidinyl)carbonyl)-2-methylpropyl)carbamate], the pEC50 (read-out: 1b EC50) is 11.52.
As for `COC(=O)N[C@@H](C(=O)N1CCCN1c1nc(-c2ccc(-c3ccc(-c4c[nH]c(N5CCCN5C(=O)[C@H](NC(=O)OC)c5ccccc5)n4)cc3)cc2)c[nH]1)c1ccccc1` [Example 12, dimethyl (4,4′-biphenyldiylbis(1H-imidazole-4,2-diyl-2,1-pyrazolidinediyl((1R)-2-oxo-1-phenyl-2,1-ethanediyl)))biscarbamate], under “read-out: 1b EC50 in Range”, the pEC50 was 9.00 to 10.00.
For `COC(=O)N[C@H](C(=O)N1[C@H](c2ncc(-c3ccc(C#Cc4ccc(-c5cnc([C@@H]6CCN(C)N6C(=O)[C@@H](NC(=O)OC)C(C)C)[nH]5)cc4)cc3)[nH]2)CCN1C)C(C)C` [Example 8, methyl ((1S)-1-(((5S)-5-(5-(4-((4-(2-((3S)-2-((2S)-2-((methoxycarbonyl)amino)-3-methylbutanoyl)-1-methyl-3-pyrazolidinyl)-1H-imidazol-5-yl)phenyl)ethynyl)phenyl)-1H-imidazol-2-yl)-2-methyl-1-pyrazolidinyl)carbonyl)-2-methylpropyl)carbamate], the pEC50 runs as follows: (read-out: 1b EC50) 9.70; (read-out: 1b EC50 in Range) 9.00 to 10.00.
The like results for `COC(=O)N[C@H](C(=O)N1CCCN1c1nc(-c2ccc(-c3ccc(-c4c[nH]c(N5CCCN5C(=O)[C@@H](NC(=O)OC)C(C)C)n4)cc3)cc2)c[nH]1)C(C)C` [Example 11, methyl ((1S)-1-((2-(4-(4′-(2-(2-((2S)-2-((methoxycarbonyl)amino)-3-methylbutanoyl)-1-pyrazolidinyl)-1H-imidazol-4-yl)-4-biphenylyl)-1H-imidazol-2-yl)-1-pyrazolidinyl)carbonyl)-2-methylpropyl)carbamate] were, in that order, over 7.86 and 7.00 to 9.00.

These data come from patent US8143301B2, “Hepatitis C virus inhibitors” (Bristol Myers Squibb Company, priority 2009, dated 2012).
